Data reported in patent US20250288572A1, “COMPOSITIONS AND METHODS FOR TREATING PULMONARY VASCULAR DISEASE” (UNIVERSITY OF PITTSBURGH-OF THE COMMONWEALTH SYSTEM OF …, priority 2022, published 2025).
“Also recorded” adds a separate entry of the source.

Assays:
[1] = tested on: PASMCs; test: RT-qPCR gene expression in PASMCs; assay type: cell-based, human; details: hypoxia, BRD2889 5 uM
Text: Cell culture: Primary human pulmonary artery endothelial cells (PAECs) and human pulmonary artery smooth muscle cells (PASMCs) were purchased from Lonza (302-05A, CC-2581). Of note, the same two male donors were the source of all PAECs in the experiments shown. Two additional male donors were the source for all PASMCs in the experiments shown. Cells from these and any donors were characterized by flow cytometry for consistent expression of cell surface markers and by RNA (RT-qPCR) analysis of endothelial and smooth muscle gene expression. PAECs were cultured in EGM-2 media (CC-3121) along with supplements (CC-4133), and PASMCs were cultured in SmGM-2 culture media (Lonza, CC-3182) at 5% CO2 in a humidified incubator.
RT-qPCR analysis: Cells were lysis in 1 ml of QiaZol reagent (Qiagen). Total RNA content was extracted using the RNeasy kit (Qiagen), according to the manufacturer's instructions. Total RNA concentration was determined using a BioTek Synergy multimode plate reader. Messenger RNAs were reverse transcribed to generate cDNA using the Multiscript RT kit (Thermo Fisher Scientific). cDNA for specific gene targets was amplified and quantified via fluorescently-labeled Taqman primer sets and Taqman fast advanced master mix (Thermo Fisher Scientific) using an Applied Biosystems QuantStudio 6 Flex Real-Time PCR System.

[2] = tested on: SU5416-hypoxic pulmonary arterial hypertension rats; test: SU5416-hypoxia pulmonary arterial hypertension rat model, disease-reversal dosing; assay type: in vivo, Sprague-Dawley rats
Method: Briefly, 10 week old male Sprague-Dawley rats were injected i.p. with 20 mg/kg of SU5416 (Sigma), placed in normobaric hypoxia (10% 02) for 3 weeks and then transferred to normoxia for 2 weeks. During hypoxic exposure, chambers were opened twice a week for cleaning and replenishment of food and water. […] For BRD2889 vs. vehicle control dosing, i.p. injections every 5 days (5 mg/kg) were administered during the final two weeks of normoxia. Oxygen concentrations were continuously monitored with blood gas analyzers.
Measurement of GST activity: The GST activity from lung tissue and PAECs was assayed using GST assay kit (Cayman, MI, USA) per the manufacturer's instructions.
(§1) Rodent echocardiography: Echocardiography was performed using a 15-45M Hz transthoracic transducer and a Visual Sonics Vevo 3100 system (Fujifilm). Inhaled isoflurane anesthesia was used at 2% in 100% 02 during positioning and hair removal and then decreased to isoflurane 0.8% during imaging.

[3] = tested on: hypoxic IL-6 Tg mice; test: Chronically hypoxic IL-6 transgenic PAH mouse model; assay type: in vivo, IL-6 transgenic mice (C57B/6 background)
Method: Pulmonary-specific IL-6 transgenic mice (C57B/6 background) were described previously (Steiner M K et al. Circ Res. 2009, 104, 236-244, 228p following 244). These mice were bred in house, and 12 week old male transgenic mice vs. control littermates were compared. Mice were injected i.p. every 3 days with vehicle control (2.5% DMSO) vs. BRD2889 (5 mg/kg vs. […] Circ Res. 2009, 104, 236-244, 228p following 244).
as §1

[4] = tested on: PASMCs; test: BrdU proliferation in PASMCs; assay type: cell-based, human; details: IL-6/sIL-6R + hypoxia
Method: BRD2889 (1 uM) vs. vehicle control were added, as indicated, and placed into a hypoxia chamber for 24 h. The hypoxia chamber (modular incubator chamber) was obtained from Billups-Rothenberg Inc. (Del Mar, Cali) and placed in regulated CO2 incubator at 37° C.
BrdU growth assay: Cell proliferation was assayed relative to day 0 using a BrdU Cell Proliferation Assay Kit (#6813, Cell Signaling) according to the manufacturer's protocol after incubation for 2 h with BrdU.

[5] = SU5416-hypoxia rats, vs vehicle control
[6] = SU5416-hypoxia rats, I-BET762 30 mg/kg daily i.p. or BRD2889 5 mg/kg i.p. every 5 days, final 2 weeks
[7] = BRD2889 10 mg/kg vs vehicle, 10 days, 10 mg/kg
[8] = BRD2889 5 and 10 mg/kg i.p. every three days

COc1ccc(C#CC2CCCN(C(=O)/C=C/c3cc(OC)c(OC)c(OC)c3)C2=O)cc1 (stereo not shown) [BRD2889, (E)-3-((4-methoxyphenyl)ethynyl)-1-(3-(3,4,5-trimethoxyphenyl)acryloyl)piperidin-2-one]
ISCU transcript [1]: unaffected by BRD2889
mTOR transcript [1]: no change in mTOR
aortic blood pressure (mean arterial pressure, MAP) [2, 5]: without significant alterations
heart rate [2, 5]: without significant alterations
left ventricular function (LVPW thickness, LVEF, LVFS; echocardiography) [2, 5]: no alteration of left ventricular function; also recorded: did not exhibit altered left ventricular function
endothelial ISCU (immunofluorescence) ([2]; SU5416-hypoxia rats, BRD2889 5 mg/kg i.p. every 5 days): increased
lung GST activity ([2]; SU5416-hypoxia rats, BRD2889 5 mg/kg i.p. every 5 days, 5 mg/kg): reduced; also recorded: decreased
transcript levels of injury markers of liver (Got, Gpt1) and kidney (Cst3, Lcn2), tissue toxicity ([2]; SU5416-hypoxia rats, BRD2889 vs VC, RT-qPCR): no indication of overt tissue toxicities
Fulton index (RV/LV+S) [2, 6]: reducing; also recorded: reduced
arteriolar muscularization (α-SMA) [2, 6]: reducing; also recorded: reduced
cleaved caspase-3 (CC-3), endothelial apoptosis [2, 6]: reducing; also recorded: decreased
right ventricular systolic pressure (RVSP) [2, 6]: reducing; also recorded: reduced
ascites ([2]; three SU5416-hypoxic rats treated with drug): accumulation of mild ascites
heart rate [3, 7]: No significant differences
left ventricular function (fractional shortening, ejection fraction, posterior wall thickness) [3, 7]: No significant differences
Fulton index (RV/LV+S) [3, 8]: dose-dependent reduction; also recorded: reduced
ISCU in arterioles / CD31+ endothelium [3, 8]: rescued ISCU; also recorded: increased
RVSP [3, 8]: dose-dependent reduction; also recorded: reduced
arteriolar muscularization / pulmonary arteriolar remodeling [3, 8]: reduction; also recorded: reduced
cleaved caspase-3 (CC-3), endothelial apoptosis [3, 8]: reduction; also recorded: decreased
lung total GST enzyme activity [3, 8]: dose-dependent reduction; also recorded: decreased lung GST activity in a dose-dependent manner
proliferation [4]: did not affect
